Literature values, collected in PubChem BioAssay AID1259409 (Chemical Carcinogenesis Research Information System (CCRIS), 2018).

Test system: rodent chemically induced tumor inhibition, incidence and multiplicity
Experiment: CCRIS tumor inhibitor studies

Oc1cc(O)c2c(c1)O[C@H](c1cc(O)c(O)c(O)c1)[C@H](O)C2
tumour outcome (control, treated, inhibition, significance) (Carcinogen: 4-METHYLNITROSAMINO-1-(3-PYRIDYL)-1-BUTANONE, 64091-91-4, Dose [Inhibitor]: 0, 560 PPM IN DRINKING WATER 2 WK PRIOR TO CARCINOGEN AND CONTINUING FOR 13 WK (STUDY DURATION: 29 WK), Route [Inhibitor]: ORAL, Species: MOUSE, Strain/Sex: A/J/FEMALE, Target Tissue: Type of Lesion: LUNG: ADENOMA, Dose [Carcinogen]: 11.65 MG/KG IN CORN OIL 3/WK FOR 10 WK, Promoter: NONE USED): 100%, 100%, 0%, not significant
tumour outcome (control, treated, inhibition, significance) (Carcinogen: N-ETHYL-N'-NITRO-N-NITROSOGUANIDINE, 4245-77-6, Dose [Inhibitor]: 0, 0.005% IN DRINKING WATER BEGINNING POST CARCINOGEN TREATMENT AND CONTINUING FOR DURATION OF STUDY (STUDY DURATION: 16, Route [Inhibitor]: ORAL, Species: MOUSE, Strain/Sex: C57BL/MALE, Target Tissue: Type of Lesion: DUODENUM: TUMOR, Dose [Carcinogen]: 100 MG/L IN DRINKING WATER FOR 4 WK, Promoter: NONE USED): 20/36 (63%), 6/30 (20%), 68%, p<0.001
tumour outcome (control, treated, inhibition, significance) (Carcinogen: N-METHYL-N'-NITRO-N-NITROSOGUANIDINE, 70-25-7, Dose [Inhibitor]: 0, 0.005% IN DRINKING WATER BEGINNING POST CARCINOGEN TREATMENT AND CONTINUING FOR DURATION OF STUDY (STUDY DURATION: 44, Route [Inhibitor]: ORAL, Species: RAT, Strain/Sex: WISTAR/MALE, Target Tissue: Type of Lesion: GLANDULAR STOMACH: TUMOR, Dose [Carcinogen]: 100 MG/L IN DRINKING WATER FOR 28 WK, Promoter: NONE USED): 10/14 (71%), 6/10 (60%), 15%, not significant
tumour outcome (control, treated, inhibition, significance) (Carcinogen: N-METHYL-N'-NITRO-N-NITROSOGUANIDINE, 70-25-7, Dose [Inhibitor]: 0, 0.05% IN DRINKING WATER BEGINNING POST CARCINOGEN TREATMENT AND CONTINUING FOR DURATION OF STUDY (STUDY DURATION: 44, Route [Inhibitor]: ORAL, Species: RAT, Strain/Sex: WISTAR/MALE, Target Tissue: Type of Lesion: GLANDULAR STOMACH: TUMOR, Dose [Carcinogen]: 80 MG/L IN DRINKING WATER FOR 28 WK, Promoter: NONE USED): 21/34 (62%), 11/35 (31%), 50%, p<0.05
tumour outcome (control, treated, inhibition, significance) (Carcinogen: PEROXYNITRITE [19059-14-4], Dose [Inhibitor]: 0.0025% IN WATER FROM 1 WK BEFORE TO 1 WK AFTER INITIATION, Route [Inhibitor]: DRINKING WATER, Species: MOUSE, Strain/Sex: SENCAR/FEMALE, Target Tissue: Type of Lesion: SKIN: PAPILLOMA, Dose [Carcinogen]: 390 UMOL ONCE (STUDY DURATION: 20 WKS), Promoter: TETRADECANOYL PHORBOL ACETATE [16561-29-8]): 100%; 10%, 90% (at wk 11)

CCC(C)C1NC(=O)C(C(C)=O)=C1O (stereo not drawn)
tumour outcome (control, treated, inhibition, significance) (Carcinogen: 7,12-DIMETHYLBENZ[A]ANTHRACENE, 57-97-6, Dose [Inhibitor]: 0, 250 UG 3/WK APPLIED 30 MIN PRIOR TO EACH PROMOTER DOSE FOR 140 D (STUDY DURATION: 140 D), Route [Inhibitor]: DERMAL, Species: MOUSE, Strain/Sex: SWISS/FEMALE, Target Tissue: Type of Lesion: SKIN: TUMOR, Dose [Carcinogen]: 200 NMOL IN 100 µL ACETONE ONCE, Promoter: 12-O-TETRADECANOYLPHORBOL-13-ACETATE, 16561-29-8): 100%, 70%, 30%, not calculated

COc1cc2c(cc1OC)[C@@H]1C(=O)c3ccc4c(c3O[C@@H]1CO2)C=CC(C)(C)O4
tumour outcome (control, treated, inhibition, significance) (Carcinogen: 7,12-DIMETHYLBENZ[A]ANTHRACENE, 57-97-6, Dose [Inhibitor]: 0, 33 UG 2/WK FOR 15 WK APPLIED 1 HR PRIOR TO EACH PROMOTER DOSE (STUDY DURATION: 15 WK), Route [Inhibitor]: DERMAL, Species: MOUSE, Strain/Sex: CD-1/FEMALE, Target Tissue: Type of Lesion: SKIN: TUMOR, Dose [Carcinogen]: 100 UG ONCE, Promoter: 12-O-TETRADECANOYLPHORBOL-13-ACETATE, 16561-29-8): 60%, 10%, 83%, p<0.05
tumour outcome (control, treated, inhibition, significance) (Carcinogen: 7,12-DIMETHYLBENZ[A]ANTHRACENE, 57-97-6, Dose [Inhibitor]: 0, 330 UG 2/WK FOR 15 WK APPLIED 1 HR PRIOR TO EACH PROMOTER DOSE (STUDY DURATION: 15 WK), Route [Inhibitor]: DERMAL, Species: MOUSE, Strain/Sex: CD-1/FEMALE, Target Tissue: Type of Lesion: SKIN: TUMOR, Dose [Carcinogen]: 100 UG ONCE, Promoter: 12-O-TETRADECANOYLPHORBOL-13-ACETATE, 16561-29-8): 60%, 0%, 100%, p<0.05
tumour outcome (control, treated, inhibition, significance) (Carcinogen: N-METHYL-N-NITROSOUREA, 684-93-5, Dose [Inhibitor]: 0, 2 MG/KG BW 5 D/WK FOR DURATION OF STUDY BEGINNING 2 WK PRIOR TO CARCINOGEN DOSE (STUDY DURATION: 194 D), Route [Inhibitor]: GAVAGE, Species: RAT, Strain/Sex: SPRAGUE-DAWLEY/FEMALE, Target Tissue: Type of Lesion: MAMMARY GLAND: ADENOCARCINOMA, Dose [Carcinogen]: 50 MG/KG BW ONCE, Promoter: NONE USED): 100%, 100%, 0%, not significant
tumour outcome (control, treated, inhibition, significance) (Carcinogen: N-METHYL-N-NITROSOUREA, 684-93-5, Dose [Inhibitor]: 0, 4 MG/KG BW 5 D/WK FOR DURATION OF STUDY BEGINNING 2 WK PRIOR TO CARCINOGEN DOSE (STUDY DURATION: 194 D), Route [Inhibitor]: GAVAGE, Species: RAT, Strain/Sex: SPRAGUE-DAWLEY/FEMALE, Target Tissue: Type of Lesion: MAMMARY GLAND: ADENOCARCINOMA, Dose [Carcinogen]: 50 MG/KG BW ONCE, Promoter: NONE USED): 100%, 100%, 0%, not significant

N
tumour outcome (control, treated, inhibition, significance) (Carcinogen: N-BUTYL-N-(4-HYDROXYBUTYL)NITROSAMINE, 3817-11-6, Dose [Inhibitor]: 0, 1% IN DRINKING WATER FOR 31 WK BEGINNING POST CARCINOGEN DOSE (STUDY DURATION: 36 WK), Route [Inhibitor]: ORAL, Species: RAT, Strain/Sex: F344/MALE, Target Tissue: Type of Lesion: URINARY BLADDER: CARCINOMA, Dose [Carcinogen]: 0.05% IN DRINKING WATER FOR 4 WK, Promoter: BUTYLATED HYDROXYANISOLE, 25013-16-5): 5/15 (33%), 3/15 (20%), 39%, not significant
tumour outcome (control, treated, inhibition, significance) (Carcinogen: N-BUTYL-N-(4-HYDROXYBUTYL)NITROSAMINE, 3817-11-6, Dose [Inhibitor]: 0, 1% IN DRINKING WATER FOR 31 WK BEGINNING POST CARCINOGEN DOSE (STUDY DURATION: 36 WK), Route [Inhibitor]: ORAL, Species: RAT, Strain/Sex: F344/MALE, Target Tissue: Type of Lesion: URINARY BLADDER: CARCINOMA, Dose [Carcinogen]: 0.05% IN DRINKING WATER FOR 4 WK, Promoter: SODIUM BICARBONATE, 144-55-8): 8/15 (53%), 4/15 (27%), 49%, not significant
tumour outcome (control, treated, inhibition, significance) (Carcinogen: N-BUTYL-N-(4-HYDROXYBUTYL)NITROSAMINE, 3817-11-6, Dose [Inhibitor]: 0, 1% IN DRINKING WATER FOR 31 WK BEGINNING POST CARCINOGEN DOSE (STUDY DURATION: 36 WK), Route [Inhibitor]: ORAL, Species: RAT, Strain/Sex: F344/MALE, Target Tissue: Type of Lesion: URINARY BLADDER: PAPILLOMA, Dose [Carcinogen]: 0.05% IN DRINKING WATER FOR 4 WK, Promoter: BUTYLATED HYDROXYANISOLE, 25013-16-5): 8/15 (53%), 8/15 (53%), 0%, not significant
tumour outcome (control, treated, inhibition, significance) (Carcinogen: N-BUTYL-N-(4-HYDROXYBUTYL)NITROSAMINE, 3817-11-6, Dose [Inhibitor]: 0, 1% IN DRINKING WATER FOR 31 WK BEGINNING POST CARCINOGEN DOSE (STUDY DURATION: 36 WK), Route [Inhibitor]: ORAL, Species: RAT, Strain/Sex: F344/MALE, Target Tissue: Type of Lesion: URINARY BLADDER: PAPILLOMA, Dose [Carcinogen]: 0.05% IN DRINKING WATER FOR 4 WK, Promoter: SODIUM BICARBONATE, 144-55-8): 9/15 (60%), 8/15 (53%), 12%, not significant

Clc1ccccc1C(c1ccccc1)(c1ccccc1)n1ccnc1
tumour outcome (control, treated, inhibition, significance) (Carcinogen: 3-METHYLCHOLANTHRENE, 56-49-5, Dose [Inhibitor]: 0, 2.9 UMOL IN 0.1 ML ACETONE 1 HR PRIOR TO CARCINOGEN DOSE 2/WK FOR 16 WK (STUDY DURATION: 16 WK), Route [Inhibitor]: DERMAL, Species: MOUSE, Strain/Sex: BALB/FEMALE, Target Tissue: Type of Lesion: SKIN: TUMORS, Dose [Carcinogen]: 1.8 UMOL IN 0.2 ML ACETONE 2/WK FOR 16 WK, Promoter: NONE USED): 100%, 70%, 30%, p<0.05

CCCCC[Se]C#N
tumour outcome (control, treated, inhibition, significance) (Carcinogen: 7,12-DIMETHYLBENZ[A]ANTHRACENE, 57-97-6, Dose [Inhibitor]: 0.1, 2 PPM (SELENIUM) IN DIET FOR 3 WK BEGINNING 2 WK PRIOR TO CARCINOGEN DOSE (STUDY DURATION: 25 WK), Route [Inhibitor]: ORAL, Species: RAT, Strain/Sex: SPRAGUE-DAWLEY/FEMALE, Target Tissue: Type of Lesion: MAMMARY GLAND: TUMOR, Dose [Carcinogen]: 10 MG ONCE, Promoter: NONE USED): 25/30 (83%), 11/30 (37%), 55%, p<0.05

C#C[C@]1(O)CC[C@H]2[C@@H]3CCc4cc(O)ccc4[C@H]3[C@H](OC)C[C@@]21C
tumour outcome (control, treated, inhibition, significance) (Carcinogen: N-METHYL-N-NITROSOUREA, 684-93-5, Dose [Inhibitor]: 0, 24 UG 3/WK FOR THE DURATION OF STUDY BEGINNING 7 D PRIOR TO CARCINOGEN DOSE (STUDY DURATION: 187 D), Route [Inhibitor]: SUBCUTANEOUS, Species: RAT, Strain/Sex: SPRAGUE-DAWLEY/FEMALE, Target Tissue: Type of Lesion: MAMMARY GLAND: TUMOR, Dose [Carcinogen]: 50 MG/KG BW ONCE, Promoter: NONE USED): 100%, 90%, 10%, not significant
tumour outcome (control, treated, inhibition, significance) (Carcinogen: N-METHYL-N-NITROSOUREA, 684-93-5, Dose [Inhibitor]: 10 UG DAILY STARTING SIMULTANEOUSLY WITH CARCINOGEN TREATMENT AND CONTINUING FOR DURATION OF STUDY (STUDY DURATION: 145, Route [Inhibitor]: INJECTION, Species: RAT, Strain/Sex: SPRAGUE-DAWLEY/FEMALE, Target Tissue: Type of Lesion: MAMMARY GLAND: TUMOR, Dose [Carcinogen]: 5 MG/100 G BW AT 0, 4 AND 8 WK OF STUDY, Promoter: NONE USED): 86%, 54%, 37%, not calculated
